For this assay, the system named is HBV. Nature of the assay: HBV inhibition assay in HepG2.2.15 cells (extracellular HBV DNA by qPCR). It counts as cell-based. The note with it: Hepatitis B virus, 120 h, extracellular HBV DNA in culture supernatant by qPCR, five days after compound treatment. As for the experimental part: HepG2.2.15 is a stably-transfected cell line containing the HBV genome. It is derived from the hepatoblastoma cell line Hep G2 (American Type Culture Collection, ATCC® HB-8065™) by the published procedures described in reference: M A Selles et al. Proc. Natl. Acad. Sci. USA 1987, 84, 1005-1009. The cell line was maintained in Dulbecco's modified Eagle's medium (DMEM)-F12 medium supplemented with 10% fetal bovine serum, 20 mM L-glutamine, 0.1 mM NEAA, 50 U/mL penicillin, 50 μg/mL streptomycin, and 0.3 mg/mL of G418.
HepG2.2.15 cells were seeded into 96-well plates at a density of 3×10^4 cells per well in 100 μL DMEM/F12 media (Life Science, Cat. #: 11320-033) supplemented with 2.5% fetal bovine serum, 20 mM L-glutamine, 0.1 mM NEAA, 50 U/mL penicillin, 50 U/mL streptomycin and cultured overnight at 37° C. The test compounds were serially half-log diluted in DMSO, then diluted 100 times in culture media. 100 μL diluted solution of tested compounds were added into the plates to reach 0.5% final concentration of DMSO in every well. Five days after compound treatment, culture supernatant was collected for further analysis.
For quantitative PCR detection of extracellular HBV DNA, culture supernatant was processed by 500 μg/mL Proteinase K (Sigma, Cat. #: P2308) digestion at 50° C. for 1 hour. After heat inactivation of the enzyme at 95° C. for 15 minutes, the samples were subjected to HBV DNA quantification by qPCR. The effective compound concentration at which HBV replication inhibited by 50% (EC50) was determined.
(Real-time PCR tracks product formation cycle by cycle.)
The term EC50 denotes the concentration that produces a half-maximal response. Lower therefore signals a more potent agent. Compound `C[C@H]1Cn2ncc(S(=O)(=O)N3CC[C@@H](O)C3)c2CN1C(=O)Nc1cc(F)c(F)c(F)c1` [Example 29, (6S)-3-[(3R)-3-hydroxypyrrolidin-1-yl]sulfonyl-6-methyl-N-(3,4,5-trifluorophenyl)-6,7-dihydro-4H-pyrazolol[1,5-a]pyrazine-5-carboxamide] yielded an EC50 of 0.146 µM.

Regarding `C[C@H]1Cn2ncc(S(=O)(=O)N[C@@H]3CCOC3)c2CN1C(=O)Nc1cc(F)c(F)c(F)c1` [Example 30, (6S)-6-methyl-3-[[(3R)-tetrahydrofuran-3-yl]sulfamoyl]-N-(3,4,5-trifluorophenyl)-6,7-dihydro-4H-pyrazolo[1,5-a]pyrazine-5-carboxamide], the EC50 turned out to be 0.156 µM.

Consider `C[C@H]1Cn2ncc(S(=O)(=O)N3CC(F)(F)C3)c2CN1C(=O)Nc1cc(F)c(F)c(F)c1` [Example 31, (6S)-3-(3,3-difluoroazetidin-1-yl)sulfonyl-6-methyl-N-(3,4,5-trifluorophenyl)-6,7-dihydro-4H-pyrazolo[1,5-a]pyrazine-5-carboxamide], for which the midpoint of the response, the EC50, lay at 0.022 µM.

Compound `C[C@H]1Cn2ncc(S(=O)(=O)N3CCOCC3)c2CN1C(=O)Nc1cc(F)c(F)c(F)c1` [Example 32, (6S)-6-methyl-3-morpholinosulfonyl-N-(3,4,5-trifluorophenyl)-6,7-dihydro-4H-pyrazolo[1,5-a]pyrazine-5-carboxamide] came in with a concentration giving a half-maximal response (EC50) of 0.179 µM.

`C[C@H]1Cn2ncc(S(=O)(=O)N3CC[C@H](O)C3)c2CN1C(=O)Nc1cc(F)c(F)c(F)c1` [Example 33, (6S)-3-[(3S)-3-hydroxypyrrolidin-1-yl]sulfonyl-6-methyl-N-(3,4,5-trifluorophenyl)-6,7-dihydro-4H-pyrazolo[1,5-a]pyrazine-5-carboxamide] gave a concentration for a half-maximal effect (EC50) of 0.145 µM.

Compound `C[C@H]1Cn2ncc(S(=O)(=O)C3CCC(O)C3)c2CN1C(=O)Nc1cc(F)c(F)c(F)c1` (stereo partly drawn) [Example 34, (6S)-3-(3-hydroxycyclopentyl)sulfonyl-6-methyl-N-(3,4,5-trifluorophenyl)-6,7-dihydro-4H-pyrazolo[1,5-a]pyrazine-5-carboxamide] gave a half-maximal effective concentration (EC50) of 0.096 µM.

With `C[C@H]1Cn2ncc(N(C)C(=O)OCc3ccccc3)c2CN1C(=O)Nc1cc(F)c(F)c(F)c1` [Example 37, Benzyl N-methyl-N-[(6S)-6-methyl-5-[(3,4,5-trifluorophenyl)carbamoyl]-6,7-dihydro-4H-pyrazolo[1,5-a]pyrazin-3-yl]carbamate], the EC50 came out at 0.475 µM.

As for `CC(=O)N(C)c1cnn2c1CN(C(=O)Nc1cc(F)c(F)c(F)c1)[C@@H](C)C2` [Example 38, (6S)-3-[acetyl(methyl)amino]-6-methyl-N-(3,4,5-trifluorophenyl)-6,7-dihydro-4H-pyrazolo[1,5-a]pyrazine-5-carboxamide], the 50% effective concentration (EC50) was found to be 0.457 µM.

As to `COCCS(=O)(=O)N(C)c1cnn2c1CN(C(=O)Nc1cc(F)c(F)c(F)c1)[C@@H](C)C2` [Example 39, (6S)-3-[2-methoxyethylsulfonyl(methyl)amino]-6-methyl-N-(3,4,5-trifluorophenyl)-6,7-dihydro-4H-pyrazolo[1,5-a]pyrazine-5-carboxamide], a half-maximal response (EC50) required 0.664 µM.

In the case of `CCS(=O)(=O)N(C)c1cnn2c1CN(C(=O)Nc1cc(F)c(F)c(F)c1)[C@@H](C)C2` [Example 40, (6S)-3-[ethylsulfonyl(methyl)amino]-6-methyl-N-(3,4,5-trifluorophenyl)-6,7-dihydro-4H-pyrazolo[1,5-a]pyrazine-5-carboxamide], the 50% effective concentration (EC50) was 0.169 µM.

Consider `C[C@H]1Cn2ncc(N(C)S(=O)(=O)C3CC3)c2CN1C(=O)Nc1cc(F)c(F)c(F)c1` [Example 41, (6S)-3-[cyclopropylsulfonyl(methyl)amino]-6-methyl-N-(3,4,5-trifluorophenyl)-6,7-dihydro-4H-pyrazolo[1,5-a]pyrazine-5-carboxamide], for which a half-maximal response (EC50) required 0.086 µM.

The values above are taken from US10604527B2, “Pyrazine compounds for the treatment of hepatitis B infection” (Hoffmann-La Roche Inc., priority 2016, dated 2020).
